Key:
[1] = various model oxidative reactions; compared with α-tocopherol, ascorbic acid, Trolox; cited from earlier work
[2] = ratio to α-tocopherol; cited from earlier work
[3] = unlike the known diuretics; cited from earlier work

`CC(=O)Oc1c(C)c(C)c2c(c1C)CCC(C)(CCC(=O)O)O2` (stereo not shown) [(V), 2,5,7,8-tetramethyl-2-(2′-carboxyethyl)-6-acetoxychroman] showed a melting point of 149 to 150 °C.

In the case of `Cc1c(C)c2c(c(C)c1O)CCC(C)(CCC(=O)O)O2` (stereo not shown) [acid (II), 2,5,7,8-tetramethyl-2-(2′-carboxyethyl)-6-hydroxychroman], the “antioxidant activity in vitro” value [1] is listed as “high antioxidant properties comparable with such known preparations as α-tocopherol, ascorbic acid, and the cardioprotective agent Trolox”.

In the case of `CC(=O)Oc1c(C)c(C)c2c(c1C)CCC(C)(CCC[C@H](C)CCC[C@H](C)CCCC(C)C)O2` (stereo partly drawn) [α-tocopheryl acetate], the “vitamin activity relative to non-acetylated α-tocopherol” value [2] is listed as 1.47 times.

For `Cc1c(O)cc2c(c1C)OC(C)(CCC(=O)O)CC2` (stereo not shown) [γ-CEHC], the “excretion of sodium ions / potassium ions” value [3] is listed as “exclusively selectively promotes the excretion of sodium ions without affecting potassium ions”.

From patent publication US7803955B2, “Method for preparing 2,5,7,8-tetramethyl-2-(2′-carboxyethyl)-6-acetoxychroman-precursor- α-CEHC precursor” (Institut Neftekhimii I Kataliza Ran, priority 2005, dated 2010)
